Data taken from PubChem BioAssay (NCI).
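1) Cells in 96-well plates. 2) Compound, 48 h, 5 concentrations. 3) Linear interpolation between surrounding doses. 4) Unreached endpoint = highest concentration. GI50: concentration for 50% inhibition of growth. Definition used: TGI = concentration required for complete inhibition of growth.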 Where a SMILES comes first, the peptide text is derived from it. [ ]: non-standard residue; d: D form. The star is where a group is joined. ξ: configuration not given here. Propanoyl(3-(4-MeO-Ph)) = COc1ccc(CCC(=O)*)cc1; Thr(3ξ) = CC(O)[C@H](N)C(=O)O; dNMeL = CN[C@H](CC(C)C)C(=O)O; ξLac = CC(O)C(=O)O

What was measured:
Experiment in all cases: DTP human tumour cell line panel, 48 h
SNB-19 CNS = tested on: SNB-19 CNS
SN12C renal = tested on: SN12C renal
TK-10 renal = tested on: TK-10 renal
MALME-3M melanoma = tested on: MALME-3M melanoma
M14 melanoma = tested on: M14 melanoma
NCI-H23 lung = tested on: NCI-H23 lung
NCI-H226 lung = tested on: NCI-H226 lung
SF-539 CNS = tested on: SF-539 CNS
MDA-N = tested on: MDA-N

SMILES | TGI (SNB-19 CNS) [µM] | TGI (SN12C renal) [µM] | TGI (TK-10 renal) [µM] | TGI (MALME-3M melanoma) [µM] | TGI (M14 melanoma) [µM] | TGI (NCI-H23 lung) [µM] | TGI (NCI-H226 lung) [µM] | TGI (SF-539 CNS) [µM] | TGI (MDA-N) [µM] | GI50 (SNB-19 CNS) [µM] | GI50 (SN12C renal) [µM] | GI50 (TK-10 renal) [µM] | GI50 (MALME-3M melanoma) [µM] | GI50 (M14 melanoma) [µM] | GI50 (NCI-H23 lung) [µM] | GI50 (NCI-H226 lung) [µM] | GI50 (SF-539 CNS) [µM]
COc1cccc2c1-c1c(OC)cccc1SS2 | 76.7 | 30.3 | 51.1 | 52 | > 100 | 72.8 | 42.7 | 33.4 | 8.15 |  |  |  |  |  |  |  | 
COC(=O)[C@@H](NC(=O)[C@@H](CC(C)C)N(C)C(=O)[C@@H]1CCCN1C(=O)C(C)O)C(C)OC(=O)CCc1ccc(OC)cc1 (stereo partly drawn) (H-[ξLac]P[dNMeL][Thr(3ξ)](Propanoyl(3-(4-MeO-Ph)))-OMe) | > 100 | > 100 | > 100 | > 100 | > 100 | > 100 | > 100 | > 100 | > 100 |  |  |  |  |  |  |  | 
COc1nc2ccc(CNc3ccc(C(=O)O)cc3)cc2nc1OC | > 10 | > 10 | > 10 | > 10 | > 10 | > 10 | > 10 | > 10 | > 10 |  |  |  |  |  |  |  | 
COc1cc([C@@H]2c3cc4c(cc3[C@@H](N=Cc3ccc(C(=O)O[C@@H](C(=O)O[C@H]5C[C@@]6(O)[C@@H](OC(=O)c7ccccc7)[C@@H]7[C@]8(OC(C)=O)CO[C@@H]8C[C@H](O)[C@@]7(C)C(=O)[C@H](OC(C)=O)C(=C5C)C6(C)C)[C@@H](NC(=O)c5ccccc5)c5ccccc5)cc3)[C@H]3COC(=O)[C@H]23)OCO4)cc(OC)c1O | > 50 | > 50 | > 50 | > 50 | > 50 | > 18.5 |  | 1.47 | 0.0663 |  |  |  |  |  |  |  | 
CCC/C(Cl)=N\OC(=O)Nc1ccc(F)c([N+](=O)[O-])c1 | 28.5 | 72.2 | 32 | 22.8 | 30.4 | 28.1 | 55.7 | 42.9 | 47.6 |  |  |  |  |  |  |  | 
COc1ccc(CCNC(=O)CCCCCO)cc1OC | > 100 | > 100 | > 100 |  | > 100 | > 100 | > 100 | > 100 |  |  |  |  |  |  |  |  | 
O=S(=O)(O)c1cc(Nc2ccnc3ccccc23)c2c(S(=O)(=O)O)cc(S(=O)(=O)O)cc2c1 |  | > 100 | > 100 | > 100 | > 100 | > 100 | > 100 | > 100 | > 100 |  |  |  |  |  |  |  | 
C=CC[C@@H]1C=C[C@@H](C(=O)OC)n2c(=O)n(-c3ccccc3)c(=O)n21 | > 100 | > 100 | > 100 |  | > 100 | > 100 | > 100 | > 100 |  |  |  |  |  |  |  |  | 
CN1CCN(/C(N)=C(\C#N)C(=O)Nc2ccccc2)CC1 | > 100 | > 100 |  |  | > 100 | > 100 | > 100 | > 100 | > 100 |  |  |  |  |  |  |  | 
Cc1cc2c(c(C(=O)NCCC(=O)N[C@@H](C)C(=O)OCc3ccccc3)c1)Oc1c(cc(C)cc1C(=O)NCCC(=O)N[C@@H](C)C(=O)OCc1ccccc1)S2 | > 100 | > 100 |  | > 100 | > 100 | > 100 | > 100 |  | > 100 |  |  |  |  |  |  |  | 
COc1ccc2c(c1)CC1(O)COc3cc(OC)ccc3C1O2 (stereo not drawn) |  | > 100 | > 100 | > 100 | > 100 | > 100 | > 100 | > 100 | > 100 |  |  |  |  |  |  |  | 
c1ccc(CCN2CCN=C2Cc2ccccc2)cc1 | > 100 | > 100 | > 100 | > 100 | > 100 | > 100 | > 100 |  | > 100 |  |  |  |  |  |  |  | 
COc1ccc(NCc2cnc3nc(N)nc(N)c3c2C)cc1 | > 100 | > 100 | > 100 | > 100 | > 100 | > 100 | > 93.9 | > 100 |  |  |  |  |  |  |  |  | 
Cn1cc(-c2nc(-c3c[nH]c4ccncc34)cs2)c2cc(F)ccc21 | 3.38 | 3.32 | 3.69 | 3.06 | 3.37 | 3.25 | 3.9 | 3.1 |  | 1.83 | 1.68 | 2.11 | 1.57 | 1.79 | 1.72 | 1.92 | 1.68
COc1ccc2oc(=Nc3ccc(F)cc3)c(C(N)=O)cc2c1 | > 100 | > 100 | 58 | > 100 | > 100 | > 100 | > 100 |  | > 100 |  |  |  |  |  |  |  | 
Cc1c(O)c(=O)ccn1CCc1c[nH]c2ccccc12 | > 100 |  | > 100 | 55.4 | 40.2 | > 100 |  | 49.6 | > 100 |  |  |  |  |  |  |  | 
CCCCNC(=S)c1ccc(OC(=O)Nc2ccc(Cl)cc2)cc1 | > 100 |  |  | > 100 | > 100 | > 100 |  | > 100 | > 100 |  |  |  |  |  |  |  | 
Cc1cc2c(cc1-c1cc3c(cc1C)C(C(C)C)=C(O)C(=O)/C3=C\Nc1c(C)n(C)n(-c3ccccc3)c1=O)/C(=C/Nc1c(C)n(C)n(-c3ccccc3)c1=O)C(=O)C(O)=C2C(C)C | > 100 | > 100 |  | > 100 | > 100 | > 100 | > 100 | > 100 | > 100 |  |  |  |  |  |  |  | 
Cc1oncc1NC1=CC(=O)C(=O)c2ccccc21 | 46.8 | 17.1 | 45.2 | 8.69 | 17 | 17.6 | 39.4 | 15.1 |  |  |  |  |  |  |  |  | 
Cc1cc(C)c2c(=N)c3ccccc3n(CCCCCCn3c4ccccc4c(=N)c4c(C)cc(C)nc43)c2n1 | 2.11 | 2.88 | 3.19 | 2.68 | 3.07 | 2.44 | 2.85 | 3.01 |  |  |  |  |  |  |  |  | 
CC(C)(C)OC(=O)N1Cc2cc(O)ccc2C[C@H]1C(=O)O | > 100 | > 100 | > 100 | > 100 |  | > 100 | > 100 | > 100 | > 100 |  |  |  |  |  |  |  | 
CCCC(=O)Nc1cc(/C=C/C(=O)N2CC(CCl)c3c2cc([N+](=O)[O-])c2ccccc32)n(C)c1 (stereo not drawn) | > 100 | > 100 | > 100 |  | > 100 | > 100 | > 100 | > 100 | > 100 |  |  |  |  |  |  |  | 
CCCCCCCCCCCCCCCCCCOc1ccc(/C=C/C2=[N+](CCCl)CCO2)cc1 | > 100 | > 100 | > 100 | > 100 | > 100 |  |  | > 100 | > 100 |  |  |  |  |  |  |  | 
